The source of these data is publication PMC4136845, “Evaluation of Antimalarial Activity and Toxicity of a New Primaquine Prodrug” (PLoS ONE, 2014).

The assay has as its system P. gallinaceum. Briefly: Inhibition of P. gallinaceum sporogony in Aedes fluviatilis mosquitoes fed on infected, treated chickens. It is filed as in vivo. Particulars: for Mean oocyts ±SD/ in times 4 h: chicken, mosquitoes fed 4 h after treatment; for Reduction in oocyst number, % / Sporogony inhibition, %: 4 h vs 0 h. As to the method:
One-week-old chicks (Gallus gallus domesticus) previously inoculated with 10^6 RBC infected with P. gallinaceum, had their parasitemia monitoried daily, by examining Giemsa-stained thin blood smears; they were used to feed the mosquitoes when reaching 2.8 – 3.8%. The A. fluviatilis mosquitoes were kept for 24 h without sugar in their diet, to improve their ability to take the blood meal from chickens. For each compound the same infected chicken was offered twice to feed clean mosquitoes (30 female mosquitoes per group), before treatment, (group 0 h). Drug treatment was immediately performed by gavage and the treated chicken was offered again to blood-feed another group of mosquitoes (test group) 4 h after treatment of the chicken with the drug. […] In each experiment, another non-treated P. gallinaceum-infected chick was used twice (time 0 h and 4 h later) to feed clean mosquitoes, serving as an internal control.
Seven days after the blood meal, the mosquitoes were dissected and their midgut was removed under a stereomicroscope (100x), stained with 0.5% mercurochrome, and examined under a light microscope (40x) for the oocyst count. […] Two criteria were used to evaluate drug activity: the total number of infected mosquitoes and the mean number of oocysts, based on the examination of 20 mosquitoes in each group.

The mark [1] stands for this setting: single oral dose 1.0 mg/kg (Phe-Ala-PQ: 0.19 mg/kg PQ).
Where [2] appears, read: single oral dose 5.0 mg/kg (0.94 mg/kg PQ).
The mark [3] stands for this setting: single oral dose 10 mg/kg (1.9 mg/kg PQ).

In the case of `COc1cc(NC(C)CCCNC(=O)[C@H](C)NC(=O)[C@@H](N)Cc2ccccc2)c2ncccc2c1` (stereo partly drawn) [Phe-Ala-PQ, phenylalanine-alanine-primaquine], under setting [1], the “Mean oocyts ±SD/ in times 4 h” value is recorded as 26±36; the “Reduction in oocyst number, %” value is recorded as 0%; the “Sporogony inhibition, %” value was determined as 0%. In addition, under setting [2], the “Mean oocyts ±SD/ in times 4 h” value is recorded as 6±6 and the “Reduction in oocyst number, %” value came out at 70%. For the same compound, under setting [3], the “Mean oocyts ±SD/ in times 4 h” value was 0±0; the “Reduction in oocyst number, %” value turned out to be 100%; the “Sporogony inhibition, %” value is given as 100%.
